# “Also recorded” adds a separate entry of the source.
# What was measured:
# Type in all cases: in vivo, rat
# [1] = Head trunk length and femur length, growing healthy rats; conditions: age of 12 weeks, vs. Ct1 group
# Procedure: (§1) 6-week-old growing male F344 rats were used.
# (§2) (2) Experimental Groups (n=10 in Each Group) (i) Control group (hereinafter, referred to as “Ct1 group”) (ii) Anti-Siglec-15 antibody administration group (hereinafter, referred to as “Sig-15 Ab administration group”): The #32A1 antibody was used as an anti-Siglec-15 antibody. The anti-Siglec-15 antibody was subcutaneously administered once every 3 weeks at a dosage of 0.25, 1 or 4 mg/kg.
# (§3) 6 weeks after the start of administration (age of 6 weeks to age of 12 weeks). After the end of the period (age of 12 weeks), the animals were euthanized, and evaluation was performed.
# (§4) The head trunk length was measured 0, 3 and 6 weeks after administration. The body weight was measured once a week.
# (§5) The femur length was measured under anesthesia every 3 weeks by micro-CT imaging.
# (§6) Micro-CT imaging of the femur, the tibia and the fifth lumber vertebra was performed, and the right femur major axis length was measured.
# [2] = tested on: serum TRACP-5b; assay: Bone resorption marker (serum TRACP-5b) by ELISA, growing healthy rats; conditions: age of 12 weeks
# Procedure: as §1, §2, §3
# (§7) Before the start of administration, and 6 weeks after administration and before euthanasia, blood was collected from the tail vein, and the values of a bone formation marker (serum osteocalcin) and a bone resorption marker (serum TRACP-5b) were measured by an ELISA method.
# [3] = tested on: serum osteocalcin; assay: Bone formation marker (serum osteocalcin) by ELISA, growing healthy rats; conditions: age of 12 weeks, vs. Ct1 group
# Procedure: as §1, §2, §3, §7
# [4] = tested on: growth cartilage and primary spongiosa region; assay: Micro-CT and histological evaluation of growth at the proximal tibia, growing healthy rats
# Procedure: as §1, §2, §3
# For bone labeling, calcein was administered 7 days before and 3 days before euthanasia (at an interval of 4 days). The calcein was dissolved in a 1.4% sodium bicarbonate solution at a concentration of 10 mg/ml, and subcutaneously injected to each animal at a dosage of 10 mg/kg.
# as §6
# Non-decalcified hard tissue sample: a coronal section tissue of proximal left tibia ½ (length: about 1.5 cm) was used. The tissue was immersed and fixed in 70% ethanol, and then stored in a cool and dark place. The resulting non-decalcified hard tissue sample was used for Villanueva staining, bright-field observation and fluorescent observation, and quantitative bone morphometry.
# (§8) Decalcified tissue sample: knee joint disarticulation was performed, and samples of a coronal section tissue of the proximal tibia (proximal right knee tibia ½) and a fifth lumber vertebra coronal section tissue were prepared.
# With the non-decalcified hard tissue sample and the decalcified tissue sample, the growth cartilage plate width and the longitudinal growth rate were histologically measured to evaluate growth disorder (“Modern Bone Histomorphometry”, 2014, WENET, Inc.).
# (§9) Osteoclastic cells were detected and evaluated by chemical staining with tartrate-resistant acid phosphatase (TRACP) (hereinafter, referred to as “TRACP staining”) and counter staining with methyl green. The growth cartilage part was detected and evaluated by safranine O staining (staining of acidic mucopolysaccharide).
# [5] = tested on: osteoclasts; assay: TRACP staining of osteoclasts, growing healthy rats; conditions: age of 12 weeks, vs. Ct1 group
# Procedure: as §1, §2, §3, §8, §9
# [6] = Bone mass (micro-CT) and bone mineral density (DXA), growing healthy rats; conditions: for BMD value (DXA) / trabecular bone mass (3D-CT): vs. Ct1 group
# Procedure: as §1, §2, §3, §6
# BMD measurement of the lumber vertebra (first to third lumber vertebrae) and the left distal femur end was performed by dual energy X-ray absorptiometric (DXA) method using a bone mineral density measuring apparatus (manufactured by Hitachi Aloka Medical, Ltd.).
# [7] = Compression mechanical test of lumber vertebral body and distal femur metaphysis, growing healthy rats; conditions: age of 12 weeks, vs. Ct1 group
# Procedure: as §1, §2, §3
# The second, third, fourth and sixth lumber vertebral bodies and the distal metaphysis of the left femur were subjected to a compression test, and the ultimate load (maximum load endured before fracture), stiffness (resistance to deformation) and toughness (energy required before fracture) were evaluated.
# [8] = Body weight, head trunk length and femur length, pediatric steroid-induced osteoporosis model rats; conditions: GC model rats
# Procedure: (§10) 6-week-old growing female LEW/Cr1Crlj rats were used.
# (§11) On the other hand, a steroid-induced osteoporosis model with rats has not been established. Thus, in this Example, a model rat with Prednisolone 25 mg/pellet/60 days implanted under the skin of a 6-week-old female LEW/Cr1Crlj rat was employed as a pediatric steroid-induced osteoporosis model. In this model, it was confirmed that 2, 4 and 6 weeks after implantation of prednisolone, the femur BMD decreased, and the maximum stress of each of the femur and the lumber vertebra decreased.
# (§12) (3) Experimental Group (n=10 in Each Group) (i) Sham group: Sham-operation+Vehicle (PBS) (subcutaneous administration) (ii) GC group: Prednisolone (PSL) pellet 25 mg/pellet/60 days-subcutaneous implantation (GC)+Vehicle (PBS) (subcutaneous administration) (iii) GC+Siglec-15Ab group: GC treatment was performed, and an anti-Siglec-15 antibody was subcutaneously administered once every 3 weeks at a dosage of 1 mg/kg (low dosage) or at a dosage of 10 mg/kg (high dosage). The #32A1 antibody was used as the anti-Siglec-15 antibody.
# as §3, §4, §5
# (§13) Micro-CT imaging of the femur and the tibia was performed, and the right femur length was measured.
# [9] = tested on: serum TRACP-5b; assay: Bone resorption marker (serum TRACP-5b) by ELISA, pediatric steroid-induced osteoporosis model rats; conditions: after 6 weeks (age of 12 weeks)
# Procedure: as §10, §11
# as §12, with “antibody. […]” for “antibody.”
# (§14) Before the start of administration, and 6 weeks after administration and before euthanasia, blood was collected from the tail vein, and the values of a bone formation marker (serum osteocalcin) and a bone resorption marker (serum TRACP-5b) in the blood were measured by an ELISA method.
# [10] = tested on: serum osteocalcin; assay: Bone formation marker (serum osteocalcin) by ELISA, pediatric steroid-induced osteoporosis model rats; conditions: GC model rats, age of 12 weeks, vs. GC group
# Procedure: as §10, §11
# as §12, with “antibody. […]” for “antibody.”
# as §14
# [11] = tested on: growth cartilage and primary spongiosa region; assay: Micro-CT and histological evaluation of growth at the proximal tibia, pediatric steroid-induced osteoporosis model rats; conditions: GC model rats
# Procedure: as §10, §11, §12, §3
# For bone labeling, tetracycline was administered 5 days before euthanasia, and calcein was administered 2 days before euthanasia (at an interval of 3 days). The animals were killed 36 hours after calcein administration. […]
# as §13
# Non-decalcified hard tissue sample: a coronal section tissue of proximal left tibia ½ (length: about 1.5 cm) was used. […] The non-decalcified hard tissue sample was stained by Villanueva staining and was used for bright-field observation and fluorescent observation, and quantitative bone morphometry. […]
# Regarding growth disorder, there was the possibility that administration over a period of 6 weeks would not cause a change leading to generation of a difference in femur length, and therefore the growth cartilage plate width and the longitudinal growth rate were histologically measured using the non-decalcified tissue and the decalcified tissue to evaluate growth disorder (“Modern Bone Histomorphometry”, 2014, WENET, Inc.).
# In FIG. 10-1(B), the part labeled in parallel to the growth cartilage and at a distal position represents the region labeled 2 days before euthanasia (white lower arrow), and the part labeled in parallel and at a further distal position represents the region labeled 5 days before euthanasia (white upper arrowhead). The bone growth rate was evaluated on the basis of the distance between the two labeled regions.
# [12] = tested on: osteoclasts; assay: TRACP staining of osteoclasts in the primary spongiosa region, pediatric steroid-induced osteoporosis model rats; conditions: GC model rats, proximal tibia, age of 12 weeks, vs. GC group (ALN also vs. Sham group)
# Procedure: as §10, §11, §12
# (§15) 6 weeks after the start of administration (age of 6 weeks to age of 12 weeks). After the end of the period (age of 12 weeks), the animals were euthanized, and evaluation was performed. […]
# [13] = Bone mass (micro-CT, bone microstructure analysis) and BMD (DXA) of the distal femur, pediatric steroid-induced osteoporosis model rats; conditions: GC model rats, age of 12 weeks
# Procedure: (3) Experimental Group (n=10 in Each Group) (i) Sham group: Sham-operation+Vehicle (PBS) (subcutaneous administration) (ii) GC group: Prednisolone (PSL) pellet 25 mg/pellet/60 days-subcutaneous implantation (GC)+Vehicle (PBS) (subcutaneous administration) (iii) GC+Siglec-15Ab group: GC treatment was performed, and an anti-Siglec-15 antibody was subcutaneously administered once every 3 weeks at a dosage of 1 mg/kg (low dosage) or at a dosage of 10 mg/kg (high dosage). […] (iv) GC+ALN group: GC treatment was performed, and ALN was subcutaneously administered twice a week at a dosage of 0.014 mg/kg (low dosage) or at a dosage of 0.140 mg/kg (high dosage).
# BMD and BMC measurements of the lumber vertebra and the distal left femur were performed by a DXA method using a bone densitometer (manufactured by Hitachi Medical, Ltd.).
# [14] = Compression test of the distal femur end, pediatric steroid-induced osteoporosis model rats; conditions: GC model rats, age of 12 weeks, vs. GC group
# Procedure: as §10, §11, §12, §15
# [15] = Confirmation of the prednisolone pellet model of pediatric steroid-induced osteoporosis; conditions: 2, 4 and 6 weeks after implantation of Prednisolone 25 mg/pellet/60 days
# Procedure: as §11
# Prednisolone 25 mg/pellet/60 days is administered at a dose of 0.42 mg a day. This dose is equivalent to 3.5 mg/kg/day for a 6-week-old rat (body weight: 120 g), and equivalent to 105 mg/day for a child having a body weight of 30 kg.
# [16] = proximal tibia, age of 12 weeks, vs. Ct1 group
# [17] = lumber vertebra, age of 12 weeks
# [18] = distal femur metaphysis compression test
# [19] = lumber vertebra compression test
# [20] = age of 6 weeks to 12 weeks, vs. GC group
# [21] = high-dosage administration group
# [22] = proximal tibia, age of 12 weeks, vs. Sham, GC and GC+Siglec-15 Ab groups
smiles,measurement,setting,value
"NCCCC(O)(P(=O)(O)O)P(=O)(O)O [ALN, Alendronate]",femur length,[1],decreased
same,head trunk length,[1],decreased
same,serum TRACP-5b level,[2],decreased depending on the dosage
same,serum osteocalcin level,[3],not significantly different
same,growth cartilage plate width (3D-CT image),"[4]; age of 12 weeks, ALN particularly high dosage",decreased
same,shape of the proximal tibia in 3D-CT images,"[4]; age of 12 weeks, vs. Ct1 group, ALN particularly high dosage",cup-like shape
same,arrangement of safranine O staining positive growth cartilage regions,"[4]; proximal tibia, age of 12 weeks",disordered arrangement
same,growth cartilage width (tissue sample),[4]; [16],decreased; also recorded: significantly inferior
same,safranine O staining positive regions in the bone in the primary spongiosa region,[4]; [16],expanded
same,bone growth rate,"[4]; proximal tibia, calcein labeling 7 and 3 days before euthanasia, vs. Ct1 group",low bone growth rate; also recorded: significantly inferior
same,number of TRACP positive cells in the secondary spongiosa region,[5]; lumber vertebra,decreased
same,number of TRACP positive cells in primary spongiosa region,[5]; proximal tibia,evidently decreased
same,number of TRACP positive cells in secondary spongiosa region,[5]; proximal tibia,decreased
same,BMD value (DXA),"[6]; distal femur, age of 12 weeks",increased depending on the dosage
same,trabecular bone mass (3D-CT),"[6]; distal femur, age of 12 weeks",increased depending on the dosage
same,bone trabecular thickness (histological),"[6]; long bone, particularly high-dosage group",increased
same,bone mass in the primary spongiosa (3D-CT),[6]; [17],particularly increased
same,BMD value (DXA),[6]; [17],increased depending on the dosage
same,trabecular bone mass (3D-CT),[6]; [17],increased depending on the dosage
same,stiffness,[7]; [18],increased in a dosage-dependent manner
same,toughness,[7]; [18],increased in a dosage-dependent manner
same,ultimate load,[7]; [18],increased in a dosage-dependent manner
same,stiffness,[7]; [19],significantly increased
same,ultimate load,[7]; [19],significantly increased
same,amount of change in body weight,[8]; [20],no significant difference
same,amount of change in femur length,[8]; [20],no significant difference
same,amount of change in head trunk length,[8]; [20],no significant difference
same,femur length,[8]; [21],tended to decrease
same,head trunk length,[8]; [21],tended to decrease
same,serum TRACP-5b level,"[9]; GC model rats, in contrast to GC group",significantly decreased
same,serum osteocalcin level,[10],not significantly different
same,shape of the proximal tibia in 3D-CT images,"[11]; age of 12 weeks, vs. Sham group, ALN high dosage",cup-like (cupping) shape
same,growth cartilage width,[11]; [22],"tended to slightly decrease, but was not statistically significantly different"
same,safranine O staining positive regions (cartilage matrix) in the bone in the primary spongiosa region,[11]; [22],more safranine O staining positive (red) regions
same,bone growth rate,"[11]; proximal tibia, tetracycline/calcein labeling, among Sham, GC and treated groups",no significant difference
same,number of TRACP positive cells in the primary spongiosa region,[12],significantly decreased
same,BMD of the distal femur (DXA),[13]; vs. GC group,increased in a dosage-dependent manner
same,"bone mass (3D-CT), region immediately above the growth plate to the proximal femur",[13]; distal femur metaphysis,increased in a dosage-dependent manner
same,bone mass (BV/TV),"[13]; secondary spongiosa region of distal femur, vs. GC group, ALN high dosage",significantly increased
same,maximum stress,[14],"tended to increase, and were not significantly different"
same,toughness,[14],"tended to increase, and were not significantly different"
"C[C@]12C=CC(=O)C=C1CC[C@@H]1[C@@H]2[C@@H](O)C[C@@]2(C)[C@H]1CC[C@]2(O)C(=O)CO [prednisolone, Prednisolone]",increase of the level of TRACP-5b,[9]; GC group (prednisolone pellet + vehicle),75%
same,maximum stress of the femur,[15],decreased
same,maximum stress of the lumber vertebra,[15],decreased
same,femur BMD,[15]; 6-week-old female rat,decreased

# — patent publication US20200115446A1 (NATIONAL UNIVERSITY CORPORATION HOKKAIDO UNIVERSITY, priority 2017, published 2020)
